# Measurements: patent publication US11542316B2, “S-Arrestin peptides and therapeutic uses thereof” (APITOPE INTERNATIONAL NV, priority 2017, dated 2023)
# Ends that are not written are not given here.
# System: SAg-specific hybridoma cells / T cell line with VAVY APC
# Assay: Antigen Processing Independent Presentation System (APIPS) assay, fresh or fixed VAVY APC
# Format: cell-based, DR3 mice
# Details: DR3 hybridoma clone (IL-2, 48 h) or T cell line (IFN-γ, 24 h)
# Method in brief: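 SAg-specific hybridomas (5×10^4) or peptide-restimulated T cell lines from immunized DR3 mice were cultured with fresh or 0.5% paraformaldehyde-fixed (5 min, RT) VAVY APCs and peptide (10 or 25 μg/ml). Read-out: IL-2 ELISA at 48 h for hybridomas, IFN-γ ELISA at 24 h for T cell lines.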
row,Substance,behaves as apitope (response to peptide presented by fresh or fixed APC)
1,KKKLTFRRDLYFSRVQVYKKK-NH2 [HIP-17J-KKK],behave as apitopes
2,KKKVIFKKISRDKSVTIYLGKKK-NH2 [HIP-115NE3-KKK],behave as apitopes
3,"LPLLANNRERRGIA-NH2 [HIP-24HM3, LPLLANNRERRGIA]",behave as apitopes
4,"LTKTLTLLPLLANNRERR-NH2 [HIP-24DG, LTKTLTLLPLLANNRERR]",behave as apitopes
5,"VIFKKISRDKSVTIYLG-NH2 [HIP-115NE3, VIFKKISRDKSVTIYLG]",behave as apitopes
